Data as given in paper PMC10046946, “Novel Phthalic-Based Anticancer Tyrosine Kinase Inhibitors: Design, Synthesis and Biological Activity” (Current Issues in Molecular Biology, 2023).

How the values were obtained:
[1] = test system: K562 (chronic myelogenous leukemia); test: MTT cell proliferation assay, K562; format: cell-based; settings: Homo sapiens, K562, 72 h of exposition, read-out: Anti-proliferative activity IC50, K562
Procedure: (§1) Tests to determine the effects of the synthesized compounds on cell viability and the half-maximal inhibitory concentration (IC50) were performed using the MTT assay, as described in our prior work.
(§2) The target compounds 5, 6, 8–12, 14, 15, 17–22 and 24–26 were tested for antiproliferative activity against six cancer cell lines: K562 (chronic myelogenous leukemia), HL-60 (promyelocytic leukemia), MCF-7 (breast adenocarcinoma), HepG2 (human liver cancer), A549 (lung carcinoma) and OKP-GS (renal cell carcinoma). The RPMI 1788 cells (B lymphocyte, human) were used as a control to evaluate the system toxicity of the studied compounds to normal cells. Sorafenib, nilotinib and lapatinib were utilized as reference standards for comparison.

[2] = test system: HL-60 (promyelocytic leukemia); test: MTT cell proliferation assay, HL-60; format: cell-based; settings: Homo sapiens, HL-60, 72 h of exposition, read-out: Anti-proliferative activity IC50, HL-60
Procedure: as §1, §2

[3] = test system: MCF-7 (breast adenocarcinoma); test: MTT cell proliferation assay, MCF-7; format: cell-based; settings: Homo sapiens, MCF7, MCF-7, 72 h of exposition, read-out: Anti-proliferative activity IC50, MCF-7
Procedure: as §1, §2

[4] = test system: HepG2 (human liver cancer); test: MTT cell proliferation assay, HepG2; format: cell-based; settings: Homo sapiens, HepG2, 72 h, HepG2, 72 h of exposition, read-out: Anti-proliferative activity IC50, HepG2
Procedure: as §1, §2

[5] = test system: A549 (lung carcinoma); test: MTT cell proliferation assay, A549; format: cell-based; settings: Homo sapiens, A549, 72 h of exposition, read-out: Anti-proliferative activity IC50, A549
Procedure: as §1, §2

[6] = test system: OKP-GS (renal cell carcinoma); test: MTT cell proliferation assay, OKP-GS; format: cell-based; settings: 72 h of exposition, read-out: Anti-proliferative activity IC50, OKP-GS
Procedure: as §1, §2

[7] = test system: RPMI 1788 cells (B lymphocyte, human); test: MTT cell proliferation assay, normal RPMI 1788 cells; format: cell-based; settings: normal human lymphoblastoid cells RPMI 1788, 72 h of exposition, read-out: Anti-proliferative activity IC50, RPMI 1788
Procedure: as §1, §2

[8] = target: T1, EGFR (Homo sapiens, UniProt P00533); test: ADP-Glo kinase assay, EGFR; format: biochemical
T1 construct: purchased Promega
T1 sequence (P00533 25-1210): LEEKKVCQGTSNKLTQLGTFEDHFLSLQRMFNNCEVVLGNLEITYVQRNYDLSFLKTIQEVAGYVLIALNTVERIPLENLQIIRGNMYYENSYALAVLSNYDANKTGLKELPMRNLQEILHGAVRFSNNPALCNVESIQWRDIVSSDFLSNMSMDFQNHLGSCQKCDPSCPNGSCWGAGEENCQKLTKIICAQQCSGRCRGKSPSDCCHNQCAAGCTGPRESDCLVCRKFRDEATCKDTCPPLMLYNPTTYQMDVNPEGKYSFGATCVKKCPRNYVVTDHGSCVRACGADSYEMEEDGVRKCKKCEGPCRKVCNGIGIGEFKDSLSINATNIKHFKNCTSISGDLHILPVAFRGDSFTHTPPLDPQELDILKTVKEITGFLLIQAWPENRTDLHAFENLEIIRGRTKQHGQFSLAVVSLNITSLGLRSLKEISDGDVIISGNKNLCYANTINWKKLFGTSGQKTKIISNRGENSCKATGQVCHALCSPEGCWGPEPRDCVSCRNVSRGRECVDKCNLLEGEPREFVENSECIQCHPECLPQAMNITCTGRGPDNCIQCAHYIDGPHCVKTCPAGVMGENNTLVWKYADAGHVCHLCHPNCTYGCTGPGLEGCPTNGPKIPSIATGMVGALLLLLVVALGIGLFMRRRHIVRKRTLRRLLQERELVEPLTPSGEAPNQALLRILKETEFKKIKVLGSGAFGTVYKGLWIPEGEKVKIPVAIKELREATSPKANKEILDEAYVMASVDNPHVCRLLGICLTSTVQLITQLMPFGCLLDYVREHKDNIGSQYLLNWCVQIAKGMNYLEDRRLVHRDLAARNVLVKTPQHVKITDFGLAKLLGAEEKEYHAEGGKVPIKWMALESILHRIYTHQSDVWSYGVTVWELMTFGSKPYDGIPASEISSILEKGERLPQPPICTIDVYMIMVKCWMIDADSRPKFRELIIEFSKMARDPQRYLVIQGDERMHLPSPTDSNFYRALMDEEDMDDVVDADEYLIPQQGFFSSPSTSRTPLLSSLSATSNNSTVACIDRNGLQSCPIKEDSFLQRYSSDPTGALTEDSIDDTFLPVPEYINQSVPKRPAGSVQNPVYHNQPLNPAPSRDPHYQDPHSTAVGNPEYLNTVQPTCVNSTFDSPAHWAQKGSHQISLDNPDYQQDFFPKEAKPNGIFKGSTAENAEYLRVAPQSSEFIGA

[9] = target: T2, HER2 (Homo sapiens, UniProt P04626); test: ADP-Glo kinase assay, HER2; format: biochemical
T2 construct: purchased Promega
T2 sequence (P04626 23-1255): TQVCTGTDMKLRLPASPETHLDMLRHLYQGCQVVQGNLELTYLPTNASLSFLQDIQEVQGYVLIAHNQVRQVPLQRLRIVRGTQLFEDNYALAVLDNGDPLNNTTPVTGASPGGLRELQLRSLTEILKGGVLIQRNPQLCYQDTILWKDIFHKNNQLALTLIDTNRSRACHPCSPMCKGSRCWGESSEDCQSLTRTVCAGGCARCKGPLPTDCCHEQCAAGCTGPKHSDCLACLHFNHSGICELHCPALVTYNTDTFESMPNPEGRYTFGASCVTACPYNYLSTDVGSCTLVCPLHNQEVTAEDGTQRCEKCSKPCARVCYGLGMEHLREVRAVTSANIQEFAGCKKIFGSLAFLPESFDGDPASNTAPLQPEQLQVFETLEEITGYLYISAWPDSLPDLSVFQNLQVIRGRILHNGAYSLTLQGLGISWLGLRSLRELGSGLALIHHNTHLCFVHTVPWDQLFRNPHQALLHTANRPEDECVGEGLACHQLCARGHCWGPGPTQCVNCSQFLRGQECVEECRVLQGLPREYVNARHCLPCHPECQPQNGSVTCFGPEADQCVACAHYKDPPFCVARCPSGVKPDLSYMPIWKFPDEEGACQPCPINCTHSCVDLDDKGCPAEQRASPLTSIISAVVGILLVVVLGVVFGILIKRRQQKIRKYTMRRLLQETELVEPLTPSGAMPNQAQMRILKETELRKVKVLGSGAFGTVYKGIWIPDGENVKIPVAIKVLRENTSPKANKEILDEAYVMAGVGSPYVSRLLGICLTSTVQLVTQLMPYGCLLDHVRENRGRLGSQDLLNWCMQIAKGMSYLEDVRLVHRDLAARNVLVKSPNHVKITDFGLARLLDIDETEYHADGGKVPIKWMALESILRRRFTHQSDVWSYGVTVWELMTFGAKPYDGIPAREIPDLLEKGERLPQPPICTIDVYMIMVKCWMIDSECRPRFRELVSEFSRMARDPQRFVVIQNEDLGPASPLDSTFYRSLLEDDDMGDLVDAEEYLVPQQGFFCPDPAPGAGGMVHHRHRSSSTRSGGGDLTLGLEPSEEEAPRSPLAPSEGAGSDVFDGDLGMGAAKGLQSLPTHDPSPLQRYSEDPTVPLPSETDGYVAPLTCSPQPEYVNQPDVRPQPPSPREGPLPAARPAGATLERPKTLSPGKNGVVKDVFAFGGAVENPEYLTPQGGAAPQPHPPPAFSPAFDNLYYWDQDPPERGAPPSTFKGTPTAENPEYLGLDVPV
Procedure: (§3) The ADP-Glo kinase assay (Promega, Madison, WI, USA) was used to screen compounds 5, 8–10, 14, 17, 19 and 24 for the tyrosine kinase (Kinase Selectivity Profiling System TK-1, Promega, Madison, WI, USA) and serine/threonine kinase (Kinase Selectivity Profiling System Other/CK-1, Promega, Madison, WI, USA) inhibition effects according to the manufacturer’s technical manual. The luminescence data were analyzed as described in our prior work.
(§4) The selectivity of the potential kinase inhibitor against a specific protein kinase or a specific family of kinases was investigated using the Kinase Selectivity Profiling System TK-1, Other/CK-1 and ADP-Glo™ Kinase assay kit (Promega, Madison, WI, USA).

[10] = target: T3, HER4 (Homo sapiens, UniProt Q15303); test: ADP-Glo kinase assay, HER4; format: biochemical
T3 construct: purchased Promega
Procedure: as §3, §4

[11] = target: T4, IGF1R (insulin-like growth factor 1 receptor) (Homo sapiens, UniProt P08069); test: ADP-Glo kinase assay, IGF1R; format: biochemical
T4 construct: purchased Promega
Procedure: as §3, §4

[12] = target: T5, InsR (insulin receptor) (Homo sapiens, UniProt P06213); test: ADP-Glo kinase assay, InsR; format: biochemical
T5 construct: purchased Promega
Procedure: as §3, §4

[13] = target: T6, KDR (VEGFR-2) (Homo sapiens, UniProt P35968); test: ADP-Glo kinase assay, KDR; format: biochemical
T6 construct: purchased Promega

[14] = target: T7, PDGFRα (Homo sapiens, UniProt P16234); test: ADP-Glo kinase assay, PDGFRα; format: biochemical
T7 construct: purchased Promega
T7 sequence (P16234 24-1089): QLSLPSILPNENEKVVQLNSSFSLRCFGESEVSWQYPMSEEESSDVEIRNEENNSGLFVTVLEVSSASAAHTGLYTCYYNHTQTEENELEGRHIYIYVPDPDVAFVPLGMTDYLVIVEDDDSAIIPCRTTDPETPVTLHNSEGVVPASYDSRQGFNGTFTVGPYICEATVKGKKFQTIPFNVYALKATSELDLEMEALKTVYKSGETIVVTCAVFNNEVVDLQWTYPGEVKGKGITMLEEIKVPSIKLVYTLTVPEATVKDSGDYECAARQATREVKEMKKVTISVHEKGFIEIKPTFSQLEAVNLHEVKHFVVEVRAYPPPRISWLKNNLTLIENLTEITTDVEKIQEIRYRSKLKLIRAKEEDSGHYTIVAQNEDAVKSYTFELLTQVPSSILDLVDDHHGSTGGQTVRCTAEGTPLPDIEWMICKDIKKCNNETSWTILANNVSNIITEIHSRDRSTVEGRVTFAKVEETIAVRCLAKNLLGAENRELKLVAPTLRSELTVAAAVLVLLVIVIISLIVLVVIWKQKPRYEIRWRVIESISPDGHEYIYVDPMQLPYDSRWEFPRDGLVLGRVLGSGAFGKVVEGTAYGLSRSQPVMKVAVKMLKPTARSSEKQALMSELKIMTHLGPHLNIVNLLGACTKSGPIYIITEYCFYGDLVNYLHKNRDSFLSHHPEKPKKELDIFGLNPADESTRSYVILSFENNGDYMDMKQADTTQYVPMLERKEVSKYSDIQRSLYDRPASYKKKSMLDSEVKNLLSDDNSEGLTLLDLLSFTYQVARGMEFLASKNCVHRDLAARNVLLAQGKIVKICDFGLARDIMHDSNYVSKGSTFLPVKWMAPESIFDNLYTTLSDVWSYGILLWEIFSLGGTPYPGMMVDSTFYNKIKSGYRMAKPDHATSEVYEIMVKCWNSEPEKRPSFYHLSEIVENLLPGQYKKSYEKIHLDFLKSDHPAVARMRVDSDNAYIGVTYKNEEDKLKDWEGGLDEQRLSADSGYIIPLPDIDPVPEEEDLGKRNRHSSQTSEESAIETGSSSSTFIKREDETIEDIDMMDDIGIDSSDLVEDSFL
Procedure: as §3, §4

[15] = target: T8, PDGFRβ (Homo sapiens, UniProt P09619); test: ADP-Glo kinase assay, PDGFRβ; format: biochemical
T8 construct: purchased Promega
T8 sequence (P09619 33-1106): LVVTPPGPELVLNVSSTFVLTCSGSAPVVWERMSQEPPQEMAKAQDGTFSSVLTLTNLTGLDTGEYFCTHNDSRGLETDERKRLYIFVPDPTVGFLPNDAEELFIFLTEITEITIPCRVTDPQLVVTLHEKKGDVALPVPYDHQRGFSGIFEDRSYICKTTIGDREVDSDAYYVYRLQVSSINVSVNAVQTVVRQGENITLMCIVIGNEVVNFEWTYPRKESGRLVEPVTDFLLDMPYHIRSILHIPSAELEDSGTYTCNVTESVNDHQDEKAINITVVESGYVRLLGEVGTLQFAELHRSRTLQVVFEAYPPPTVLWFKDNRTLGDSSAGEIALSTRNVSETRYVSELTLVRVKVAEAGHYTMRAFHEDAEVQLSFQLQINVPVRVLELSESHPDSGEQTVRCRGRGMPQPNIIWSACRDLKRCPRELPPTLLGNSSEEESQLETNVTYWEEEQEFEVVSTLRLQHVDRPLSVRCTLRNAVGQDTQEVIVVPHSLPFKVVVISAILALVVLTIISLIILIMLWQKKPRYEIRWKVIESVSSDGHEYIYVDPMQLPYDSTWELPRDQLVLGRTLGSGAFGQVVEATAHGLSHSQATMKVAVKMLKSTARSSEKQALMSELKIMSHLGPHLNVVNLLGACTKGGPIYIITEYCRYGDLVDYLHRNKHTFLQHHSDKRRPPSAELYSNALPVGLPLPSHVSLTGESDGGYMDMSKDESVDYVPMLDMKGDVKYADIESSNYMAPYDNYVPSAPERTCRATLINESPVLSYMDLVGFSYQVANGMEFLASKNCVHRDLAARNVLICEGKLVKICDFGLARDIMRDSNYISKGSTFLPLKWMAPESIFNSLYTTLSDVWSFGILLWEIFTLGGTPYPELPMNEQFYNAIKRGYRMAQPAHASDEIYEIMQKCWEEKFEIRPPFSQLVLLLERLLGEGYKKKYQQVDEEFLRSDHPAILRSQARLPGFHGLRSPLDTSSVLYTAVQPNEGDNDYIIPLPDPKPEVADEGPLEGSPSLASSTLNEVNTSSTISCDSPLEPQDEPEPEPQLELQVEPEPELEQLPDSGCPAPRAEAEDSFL
Procedure: as §3, §4

[16] = target: T9, Aurora A (Homo sapiens, UniProt O14965); test: ADP-Glo kinase assay, Aurora A; format: biochemical
T9 construct: purchased Promega
T9 sequence (O14965 1-403): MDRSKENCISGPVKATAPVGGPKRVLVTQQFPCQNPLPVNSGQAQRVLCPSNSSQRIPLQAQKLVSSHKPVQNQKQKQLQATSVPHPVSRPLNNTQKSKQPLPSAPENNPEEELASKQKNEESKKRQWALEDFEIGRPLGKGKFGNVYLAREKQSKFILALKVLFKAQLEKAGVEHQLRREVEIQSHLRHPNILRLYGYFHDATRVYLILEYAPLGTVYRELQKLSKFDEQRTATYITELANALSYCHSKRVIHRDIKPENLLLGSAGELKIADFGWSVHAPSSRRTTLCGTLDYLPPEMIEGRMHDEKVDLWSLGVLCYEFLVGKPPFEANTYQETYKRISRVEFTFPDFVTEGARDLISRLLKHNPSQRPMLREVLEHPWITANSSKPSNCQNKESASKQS
Procedure: as §3, §4

[17] = target: T10, Aurora B (Homo sapiens, UniProt Q96GD4); test: ADP-Glo kinase assay, Aurora B; format: biochemical
T10 construct: purchased Promega
T10 sequence (Q96GD4 whole entry): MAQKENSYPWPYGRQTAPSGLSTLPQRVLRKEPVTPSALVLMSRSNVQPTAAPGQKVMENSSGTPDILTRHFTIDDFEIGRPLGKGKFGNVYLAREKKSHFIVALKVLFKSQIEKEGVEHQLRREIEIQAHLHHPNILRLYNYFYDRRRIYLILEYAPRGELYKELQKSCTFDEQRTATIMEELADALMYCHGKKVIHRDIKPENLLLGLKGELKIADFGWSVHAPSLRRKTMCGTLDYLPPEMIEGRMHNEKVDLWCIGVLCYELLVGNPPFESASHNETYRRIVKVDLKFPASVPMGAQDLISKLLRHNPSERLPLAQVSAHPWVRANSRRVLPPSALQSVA
Procedure: as §3, §4

[18] = test system: K562 cells; test: Cell cycle analysis (propidium iodide, flow cytometry); format: cell-based; settings: 48 h
Procedure: Tumor cells were seeded on a 6-well plate at a density of 400,000 per well for K562. Test compounds 5, 14 and 15 were added at concentrations of 1, 5 and 10 μM in duplicate for 48 h. The methodology and analysis of the obtained data were performed as described in our prior work.
As shown above, compounds 5, 14 and 15 had significant antiproliferative activities, which is why their influences on the cell cycle and apoptosis level were determined, with the aim of understanding whether these effects are cytostatic or cytotoxic. In the cell cycle experiments, K562 cells were used. […] For the determination of changes in the distribution of cells in the phases of the cell cycle, the widely employed method of staining the cells with propidium iodide was used.

[19] = test system: K562 cells; test: Annexin V-FITC/PI apoptosis assay; format: cell-based; settings: 48 h
Procedure: K562 tumor cells were plated on a 6-well plate at a density of 400,000 per well. Test compounds 5, 14 and 15 were added at concentrations of 1, 5 and 10 μM in duplicate for 48 h. The methodology and analysis of the obtained data were performed as described in our prior work.
The effects of compounds 5, 14 and 15 on cell apoptosis were examined using the Annexin V-FITC Kit (Beckman Coulter, Brea, CA, USA) according to the protocols provided. The Annexin V-FITC Kit is an apoptosis detection kit based on the binding properties of annexin V to phosphatidylserine (PS) and on the DNA intercalating capability of propidium iodide (PI). K562 cells were treated with compound 5, 14 and 15 at 1, 5 and 10 μM for 48 h, after which annexin V/PI binding was measured by flow cytometry.

[20] = test system: K562 cell line; test: ROS determination (DCFH-DA, flow cytometry); format: cell-based; settings: 48 h
Procedure: The redox status was assessed using the K562 cell line. […] Then, the cells were washed to remove the 2′,7′-dichlorodihydrofluorescein diacetate by centrifugation at 1000 rpm for 5 min. The measurements were conducted using a Cytomics FC500 Beckman Coulter flow cytometer (FL1 channel for DCF).

Compound	IC50 [1] [µM]	IC50 [2] [µM]	IC50 [3] [µM]	IC50 [4] [µM]	IC50 [5] [µM]	IC50 [6] [µM]	inhibition at 10 µM [8] [%]	inhibition at 10 µM [9] [%]	inhibition at 10 µM [10] [%]	inhibition at 10 µM [11] [%]	inhibition at 10 µM [12] [%]	inhibition at 10 µM [13] [%]	inhibition at 10 µM [14] [%]	inhibition at 10 µM [15] [%]	inhibition at 10 µM [16] [%]	inhibition at 10 µM [17] [%]	melting point [°C]	IC50 [7] [µM]	Apoptosis, % (cell cycle analysis) ([18]; K562, 1 µM) [%]	G1, % ([18]; K562, 1 µM) [%]	also measured
O=C(Nc1cccc(C(F)(F)F)c1)c1cccc(C(=O)N2CCN(C(=O)c3cccc(F)c3)CC2)c1 [Compound 9, 3-(4-(3-Fluorobenzoyl)piperazine-1-carbonyl)-N-(3-(trifluoromethyl)phenyl)benzamide]	21 ± 0.59	21.9 ± 1.59	26.3 ± 3.71	33.3 ± 3.45	> 50	> 50	90	64	37	0	0	33	20	24	0	0	97 to 101	26.3 ± 1.88	–	–	–
CNC(=O)c1cc(Oc2ccc(NC(=O)Nc3ccc(Cl)c(C(F)(F)F)c3)cc2)ccn1 [Sorafenib, reference compound]	2.44 ± 0.21	3.37 ± 0.42	8.62 ± 2.24	5.01 ± 0.14	12.5 ± 1.64	7.17 ± 0.5	–	–	–	–	–	–	100	100	–	–	–	3.48 ± 0.39	22.60	36.50	S, % ([18]; K562, 1 µM): 7.72%; Apoptosis, % (cell cycle analysis) ([18]; K562, 5 µM): 44.20%; G1, % ([18]; K562, 5 µM): 33.87%; S, % ([18]; K562, 5 µM): 30.14%; normal live cells (living cells) ([19]; K562, 1 µM): 84.11%; early apoptotic cells ([19]; K562, 5 µM): 36.2%; late apoptotic cells ([19]; K562, 5 µM): 19.57%; normal live cells (living cells) ([19]; K562, 5 µM): 42.32%; necrotic cells ([19]; K562, 10 µM): 5.73%; normal live cells (living cells) ([19]; K562, 10 µM): 26.41%; ROS Level, % of Control ([20]; K562, 5 µM): 69.20 % of Control; ROS Level, % of Control ([20]; K562, 10 µM): 79.03 % of Control; ROS Level, % of Control ([20]; K562, 20 µM): 71.59 % of Control
Cc1cn(-c2cc(NC(=O)c3cccc(C(=O)N4CCN(C(=O)c5cccc(F)c5)CC4)c3)cc(C(F)(F)F)c2)cn1 [Compound 15, 3-(4-(3-Fluorobenzoyl)piperazine-1-carbonyl)-N-(3-(4-methyl-1H-imidazol-1-yl)-5-(trifluoromethyl)phenyl)-benzamide]	10.5 ± 2.54	34.8 ± 4.7	27.38 ± 0.26	45.8 ± 1.76	> 50	> 50	–	–	–	–	–	–	–	–	–	–	130 to 135	29.4 ± 1.79	17.90	30.15	G2/M, % ([18]; K562, 1 µM): 48.54%; S, % ([18]; K562, 1 µM): 21.31%; Apoptosis, % (cell cycle analysis) ([18]; K562, 5 µM): 20.54%; G1, % ([18]; K562, 5 µM): 34.76%; G2/M, % ([18]; K562, 5 µM): 53.65%; S, % ([18]; K562, 5 µM): 11.59%; Apoptosis, % (cell cycle analysis) ([18]; K562, 10 µM): 32.72%; G1, % ([18]; K562, 10 µM): 28.85%; G2/M, % ([18]; K562, 10 µM): 62.99%; S, % ([18]; K562, 10 µM): 8.16%; normal live cells (living cells) ([19]; K562, 1 µM): 74.91%; normal live cells (living cells) ([19]; K562, 5 µM): 68.41%; normal live cells (living cells) ([19]; K562, 10 µM): 60.97%; ROS Level, % of Control ([20]; K562, 5 µM): 92.89 % of Control; ROS Level, % of Control ([20]; K562, 10 µM): 87.87 % of Control; ROS Level, % of Control ([20]; K562, 20 µM): 94.07 % of Control

The next lines start with results.

IC50 [1] [µM]	IC50 [2] [µM]	IC50 [3] [µM]	IC50 [4] [µM]	IC50 [5] [µM]	IC50 [6] [µM]	inhibition at 10 µM [8] [%]	inhibition at 10 µM [9] [%]	inhibition at 10 µM [10] [%]	inhibition at 10 µM [11] [%]	inhibition at 10 µM [12] [%]	inhibition at 10 µM [13] [%]	inhibition at 10 µM [14] [%]	inhibition at 10 µM [15] [%]	inhibition at 10 µM [16] [%]	inhibition at 10 µM [17] [%]	melting point [°C]	Compound	IC50 [7] [µM]	Apoptosis, % (cell cycle analysis) ([18]; K562, 1 µM) [%]	G1, % ([18]; K562, 1 µM) [%]	also measured
> 50	> 50	> 50	> 50	> 50	> 50	4	39	2	0	17	16	19	20	–	–	202 to 205	COc1ccc(C(=O)N2CCN(C(=O)c3ccc(C(=O)Nc4cccc(C(F)(F)F)c4)cc3)CC2)cc1 [Compound 19, 4-(4-(4-Methoxybenzoyl)piperazine-1-carbonyl)-N-(3-(trifluoromethyl)phenyl)benzamide]	> 50	–	–	–
–	–	–	–	–	–	–	–	–	–	–	–	–	–	68	90	–	CCN(CC)CCNC(=O)c1c(C)[nH]c(/C=C2\C(=O)Nc3ccc(F)cc32)c1C [Sunit., sunitinib, reference compound]	–	–	–	–
